According to the supplement of paper PMC10307832:

Compound: O=C(CCCCCCC(=O)Nc1ccccc1)NO [Vorinostat] + COc1cc2c(Oc3ccc(NC(=O)C4(C(=O)Nc5ccc(F)cc5)CC4)cc3F)ccnc2cc1OCCCN1CCOCC1 [Foretinib] (partner 0.25 µM)
Test: relative viability (nuclei count vs DMSO), 5 days (fraction); higher = more cells survive
Summary of the method: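 Lung cancer cell lines were pin-tool dosed in 1536-well plates on the day after seeding, with either a lone drug or a fixed anchor-drug dose plus five library-drug doses (not always all listed) in √10 steps. Nuclei were counted on 4× images after 5 days. Relative viability is the ratio of treated-well to vehicle-well nuclei counts, with each value a median of duplicate plates.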

Row | Cell Line | relative viability (first compound 0.253 µM) | relative viability (first compound 0.8 µM) | relative viability (first compound 2.53 µM) | relative viability (first compound 8 µM)
1 | 201T | 1.25 | 0.983 | 0.511 | 0.165
2 | A-427 | 1.21 | 1.13 | 0.561 | 0.191
3 | ABC-1 | 1.07 | 0.834 | 0.358 | 0.102
4 | BEN | 0.8 | 0.414 | 0.149 | 0.0734
5 | CAL-12T | 1.34 | 1.14 | 0.721 | 0.119
6 | COR-L23 | 1.02 | 0.671 | 0.152 | 0.0834
7 | COR-L 105 | 1.27 | 0.996 | 0.915 | 0.246
8 | ChaGo-K-1 | 1 | 0.863 | 0.559 | 0.189
9 | EKVX | 0.859 | 0.931 | 0.714 | 0.138
10 | EMC-BAC-2 | 1.02 | 0.977 | 0.4 | 0.172
11 | EPLC-272H | 0.581 | 0.512 | 0.0722 | 0.133
12 | H3255 | 0.859 | 0.868 | 0.812 | 0.223
13 | HARA | 0.965 | 0.495 | 0.151 | 0.0596
14 | HCC-15 | 1.12 | 0.979 | 0.464 | 0.102
15 | HCC-78 | 0.683 | 0.448 | 0.221 | 0.221
16 | HCC-366 | 1.03 | 0.333 | 0.0524 | 0.0624
17 | HCC-827 | 1.07 | 1.02 | 0.55 | 0.174
18 | HOP-62 | 1.03 | 1.1 | 0.365 | 0.122

Row | Cell Line | relative viability (first compound 0.253 µM) | relative viability (first compound 0.8 µM) | relative viability (first compound 2.53 µM) | relative viability (first compound 8 µM)
19 | IA-LM | 1.17 | 1.14 | 0.342 | 0.039
20 | LC-2-ad | 0.984 | 0.681 | 0.268 | 0.145
21 | LCLC-97TM1 | 1.06 | 0.957 | 0.394 | 0.153
22 | LCLC-103H | 0.924 | 0.801 | 0.243 | 0.135
23 | LK-2 | 1.03 | 0.896 | 0.28 | 0.137
24 | LOU-NH91 | 1.08 | 0.917 | 0.758 | 0.347
25 | LU99A | 0.81 | 0.692 | 0.319 | 0.222
26 | LXF-289 | 0.981 | 0.97 | 0.3 | 0.0942
27 | NCI-H23 | 1.05 | 0.724 | 0.336 | 0.129
28 | NCI-H322M | 1.1 | 0.925 | 0.428 | 0.309
29 | NCI-H358 | 1.01 | 0.649 | 0.154 | 0.0783
30 | NCI-H441 | 0.874 | 0.971 | 0.59 | 0.175
31 | NCI-H460 | 1.09 | 0.927 | 0.0567 | 0.0329
32 | NCI-H520 | 0.965 | 0.791 | 0.555 | 0.179
33 | NCI-H596 | 0.847 | 0.715 | 0.53 | 0.22
34 | NCI-H647 | 1.08 | 1.04 | 0.507 | 0.0683
35 | NCI-H650 | 0.998 | 0.907 | 0.213 | 0.151
